In patent US20220267269A1, “COMPOUNDS FOR THE MODULATION OF PROPROTEIN CONVERTASE SUBTILISIN/KEXIN TYPE 9 (PCSK9)” (SRX Cardio, LLC, priority 2019, published 2022):

Key:
[1] = Dissolution in dosing vehicle; format: physicochemical; details: 1% Tween-80 aqueous solution, 10-15 minutes sonication
Method: (§1) A representative compound (Compound 1041) was tested for oral bioavailability and efficacy in mice. Male C57BL/6 mice were purchased from Taconic Biosciences (Rensselaer, New York) and housed under standard conditions with the exception of being provided a high fat diet (#TD.90221, Envigo, Madison, Wis.) and water ad libitum. Following 4 weeks of diet acclimation the animals were then dosed with compound or vehicle as control specimens. Compound readily dissolved at 1.5 mg/ml in a 1% Tween-80 aqueous solution with 10-15 minutes sonication. This solution was used at the 1.5 mg/ml concentration for oral (PO) dosing or further diluted with sterile saline for intravenous (IV) dosing.

Male C57BL/6 mice = test: Liver panel in high fat diet mice; format: in vivo
Method: as §1
To assess animal health following compound exposure, a liver panel (Test Code #60405) was tested by IDEXX BioAnalytics (North Grafton, Mass.). […] Also of note, AST and ALT levels in the liver panel were elevated in the PO vehicle, which is attributed to the high fat diet used in the study (Envigo, #TD.90221).

PCSK9 = target: T1, PCSK9 (Homo sapiens, UniProt Q8NBP7); test: Fluorescent-LDL uptake analysis by flow cytometric analysis; format: cell-based
T1 construct: purchased Cayman Chemical 20631
T1 sequence (Q8NBP7 153-692): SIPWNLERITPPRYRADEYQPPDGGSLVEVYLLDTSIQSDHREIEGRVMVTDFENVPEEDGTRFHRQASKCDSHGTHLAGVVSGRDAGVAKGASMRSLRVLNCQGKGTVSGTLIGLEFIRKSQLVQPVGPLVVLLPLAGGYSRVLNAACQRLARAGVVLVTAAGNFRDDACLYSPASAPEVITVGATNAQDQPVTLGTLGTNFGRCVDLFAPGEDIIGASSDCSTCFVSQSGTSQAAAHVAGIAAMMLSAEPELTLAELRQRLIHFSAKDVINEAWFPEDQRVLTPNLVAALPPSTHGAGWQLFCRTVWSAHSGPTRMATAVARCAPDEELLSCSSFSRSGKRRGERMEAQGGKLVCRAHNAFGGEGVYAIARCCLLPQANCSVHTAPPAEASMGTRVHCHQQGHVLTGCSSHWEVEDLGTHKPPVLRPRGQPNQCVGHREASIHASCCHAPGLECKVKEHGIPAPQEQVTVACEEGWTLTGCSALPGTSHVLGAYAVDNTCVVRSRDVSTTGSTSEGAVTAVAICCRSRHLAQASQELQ
Method: Cells, such as HuH7, FL83B, or a cell line transfected with a short-hairpin PCSK9 knockdown sequence such as HuH7/shPCSK9 or FL83B/shPCSK9 were plated and cultured at 37° C. for 12-24 h. Culture media was removed and replaced with fresh lipoprotein-depleted culture media supplemented with 5 μg/mL of fluorescently labeled LDL or lipoprotein-depleted culture media supplemented with 5 μg/mL of fluorescently labeled LDL plus a concentration of recombinant PCSK9 (for example 5 μg/mL recombinant PCSK9; Cayman Chemical, Cat. #20631). Examples of fluorescently labeled LDL include: DiI-LDL (Kalen Biomedical), or LDL conjugated to Dylight (e.g., LDL-Dylight 488, or LDL-Dylight 550 (Cayman Chemical, Cat. #10011229)). Lipoprotein-depleted culture media was composed of DMEM (Invitrogen) with 10% lipoprotein-depleted fetal bovine serum (Kalen Biomedical) and supplemented with penicillin-streptomycin (Life Technologies). Cells were dosed with small molecule test compounds at doses ranging from 0 nM to 100 μM, following a protocol adapted from Benjannet et al., “Effects of the prosegment and pH on the activity of PCSK9: evidence for additional processing events” J Biol Chem. 285(52):40965-40978 (2010), which is incorporated by reference in its entirety.
Following an incubation period of specified length, such as 16 hours, the lipoprotein-depleted media was removed and cells rinsed three times with a rinse solution (Dulbecco's phosphate buffered saline (D-PBS, Life Technologies), supplemented with 0.5% bovine serum albumin (BSA, Sigma) and 1 g/L glucose (Sigma)). The fluid was then removed, and cells are released from the plate using TrypLE Express (Life Technologies) per manufacturer's recommended procedures, such as incubation for 5-10 minutes at 37° C. The TyrpLE-Cell suspension was then transferred to 15 mL conical tubes, volume was increased to 2 mL with D-PBS supplemented with 0.5% BSA, and […], and the tubes were centrifuged at 250×gravity for 10 minutes. Following centrifugation, the supernatant was aspirated and the cell pellet was resuspended in 300 μL PBS and counterstained with 4′,6-diamidino-2-phenylindole (DAPI, Cayman Chemical) as a cell viability marker, other cell viability markers such as 7-aminoactinomycin D (7AAD, Life Technologies) have also been described in the art.
Cells were analyzed by for both 7AAD (dead cells) and fluorescent LDL in live cells using a flow cytometer per the manufacturer's operating manual. Cells incubated with small molecule compounds that are inhibitors of PCSK9 will be expected to show increased amounts of LDL fluorescence, relative to control (no compound) specimens, and cells incubated with small molecule compounds that are activators of PCSK9 will be expected to show decreased amounts of LDL fluorescence relative to control (no compound) specimens.
The LDL-uptake EC50 is provided as follows: +++: <0.5 μM; ++: 0.5-1μM; +: >1 μM.

[2] = In vivo PK in mice (IV and PO); details: male, C57BL/6, mouse, plasma
Method: as §1
Test animals received a single dose at 3 mg/kg by IV or 15 mg/kg by PO while control animals received an equal volume of vehicle control by IV or PO, respectively. Plasma samples were collected at 0.25, […], 1, 2, 3, 6, 8, 24, and 48 hours while liver specimens were collected at 8, 24, and 48 hours and drug concentration were measured by LC-MS/MS per standard protocols.
In brief, blood was immediately centrifuged, and the resulting plasma was frozen and stored at −80° C. until analysis. […] Compound concentrations were determined by a liquid chromatography-mass tandem spectrometry (LC-MS/MS) per routine method (Quintara Discovery, Hayward, Calif.) following the standard protocol. […]

[3] = daily 15 mg/kg PO, 72-hour group, versus vehicle control

With Cc1cc(-c2ccc(F)cc2)ccc1C1CCCN(C2CCCC2)C1 (stereo not shown) [Compound 1,041, 1-cyclopentyl-3-(4′-fluoro-3-methyl-[1,1′-biphenyl]-4-yl)piperidine] the dissolved concentration [1] was at least 1.5 mg/mL, the “reduction in ALT levels” value (Male C57BL/6 mice; [3]) was 77.7% and the “reduction in AST levels” value (Male C57BL/6 mice; [3]) was 72.1%. For the same molecule, the liver panel toxicity (Male C57BL/6 mice; three daily 15 mg/kg PO doses, 72 hours, versus PO vehicle) was “no overt toxicity”, the EC50 (PCSK9) was 0.5 to 1 µM and the half-life ([2]; IV 3 mg/kg) was 4.8 h. It also gave a half-life ([2]; PO 15 mg/kg) of 9.8 h.
